Assay [1] deals with mouse imiquimod-induced psoriasis model. The assay can be described thus: Ear thickening suppression test using mouse imiquimod-induced psoriasis model. The note with it: topical, 120 h, thickness measured on day 5, BALB/c mice, read-out: rate of inhibition of increase in right auricle thickness; for inhibition in vivo at 1 %: application of a 1% solution in methanol for 4 days; for inhibition in vivo at 0.01 %: application of a 0.01% methanol solution for 4 days. In kind it is in vivo. As to the method:
Ear Thickening Suppression Test Using Mouse Imiquimod-Induced Psoriasis Model
An imiquimod-induced psoriasis model test was carried out by modifying the method of Leslie van der Fits et al. (J. Immunol. 182, 5836 (2009)). BALB/c mice were used (female, supplied by Charles River Laboratories Japan, Inc.) as laboratory animals. On the start day of the test, the thicknesses of the right auricles of the mice were measured with a thickness gauge (model SMD-565J manufactured by TECLOCK Corp.). A test compound solution or only a solvent was applied or orally administered, and after 60 minutes, 5 mg of imiquimod (Beselna Cream 5% manufactured by Mochida Pharmaceutical Co., Ltd.) was applied to the insides of the right auricles. The test compound solution or solvent administration and the imiquimod application were carried out for 4 days, and the thicknesses of the right auricles were measured again on day 5. When increase in the thicknesses of the right auricles of the solvent-administered group on day 5 was defined as 100%, the rate of inhibition of increase (%) at each dose of the test compound was calculated.

A further assay addresses T1, CDK7 (Homo sapiens, UniProt P50613).
T1 construct: purchased Carna Biosciences, Inc. 04-108
The assay can be described thus: CDK7 enzyme inhibition test. In kind it is biochemical. The note with it: Ki=IC50/(1+S/Km); 33P bound to MBP, [γ-33P]ATP, 30° C. for 20 minutes; read-out: Ki value of CDK7 inhibitory activity. In outline:
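Recombinant CDK7 with MBP substrate and [γ-33P]ATP (500 μM solution, diluted into the mix) in HEPES pH 7.4/DTT/Triton X-100/MgCl2, 20 min at 30 °C. TCA-precipitated 33P-MBP counted by scintillation; IC50 from inhibition, Ki = IC50/(1+S/Km).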

In a further assay the target is T2, CDK2 (Homo sapiens, UniProt P24941).
T2 construct: purchased Invitrogen Corp. PV3267
The assay can be described thus: CDK2 enzyme inhibition test. The class given is biochemical. As to conditions: Ki=IC50/(1+S/Km); 33P bound to MBP, [γ-33P]ATP, 30° C. for 20 minutes; read-out: Ki value of CDK2 inhibitory activity. The method, then:
CDK2 Enzyme Inhibition Test
The preparation of a buffer solution was performed by mixing a HEPES buffer solution (pH 7.4), DTT, Triton X-100, and MgCl2. A 500 μM [γ-^33P]ATP solution was used by diluting a 10 mM ATP solution and a commercially available [γ-^33P]ATP solution (manufactured by PerkinElmer, Inc., Code No. NEG-302H) with the buffer solution. A CDK2 solution was used by diluting commercially available CDK2 (manufactured by Invitrogen Corp., Catalog No. PV3267) with the buffer solution. A substrate solution was used by diluting MBP with the buffer solution. As for the preparation of a reaction solution, the buffer solution, the 500 μM [γ-^33P]ATP solution, the CDK2 solution, and the substrate solution were mixed at 4° C. to obtain a reaction solution.
(§1) CDK2 enzyme reaction was performed by adding 5 μL of a test compound solution prepared with 10% DMSO/90% injectable distilled water, and 45 μL of the reaction solution in a 1.5 mL microtube at 4° C. and reacting in the microtube at 30° C. for 20 minutes in a water bath incubator. After the reaction, a 10% aqueous TCA solution was added to each microtube while cooled to 4° C., and mixed to terminate the reaction. The resultant was left standing at 4° C. for 10 minutes and then centrifuged in a centrifuge, and the supernatant was discarded. Next, a 2% aqueous TCA solution was added, mixed thereto, and then centrifuged in a centrifuge, and the supernatant was discarded. This washing operation was performed twice. After the washing, precipitates were dissolved in a 1 N aqueous NaOH solution, and the radioactivity was measured with a liquid scintillation counter.
The calculation of the inhibitory activity of the test compound against CDK2 was performed as a test compound concentration inhibiting 50% of the amount of ^33P bound to MBP (IC50 value) by using EXSUS (version 8.0.0 or version 8.0.1, manufactured by CAC Exicare Corp.).
(§2) The calculation of a Ki value was performed according to the following calculation expression. S means the concentration of ATP contained in the reaction solution, and Km means a Michaelis-Menten constant. Ki=IC50/(1+S/Km)

The target of another assay is T3, PAK4 (Homo sapiens, UniProt O96013).
T3 construct: purchased Invitrogen Corp. PV4212
T3 sequence (O96013 whole entry): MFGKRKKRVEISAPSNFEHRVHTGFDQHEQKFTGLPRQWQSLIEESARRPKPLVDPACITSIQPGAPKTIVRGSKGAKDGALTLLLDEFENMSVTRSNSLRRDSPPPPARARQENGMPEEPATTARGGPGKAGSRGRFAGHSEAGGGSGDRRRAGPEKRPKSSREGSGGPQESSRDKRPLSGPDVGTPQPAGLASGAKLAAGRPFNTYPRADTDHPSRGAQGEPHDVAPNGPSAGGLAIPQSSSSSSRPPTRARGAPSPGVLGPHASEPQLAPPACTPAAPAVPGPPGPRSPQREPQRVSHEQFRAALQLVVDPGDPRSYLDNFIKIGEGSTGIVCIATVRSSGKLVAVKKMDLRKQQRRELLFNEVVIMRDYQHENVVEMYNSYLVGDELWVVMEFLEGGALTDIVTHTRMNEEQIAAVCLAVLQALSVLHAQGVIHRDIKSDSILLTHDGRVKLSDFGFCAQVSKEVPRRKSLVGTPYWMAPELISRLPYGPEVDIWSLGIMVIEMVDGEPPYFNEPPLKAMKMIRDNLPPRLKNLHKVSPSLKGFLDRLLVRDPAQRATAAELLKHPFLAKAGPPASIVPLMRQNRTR
The assay can be described thus: PAK4 enzyme inhibition test. In kind it is biochemical. The note with it: Ki=IC50/(1+S/Km); 33P bound to MBP, [γ-33P]ATP, 30° C. for 20 minutes; read-out: Ki value of PAK4 inhibitory activity. As to the method:
PAK4 Enzyme Inhibition Test
The preparation of a buffer solution was performed by mixing a trishydroxyaminomethane buffer solution (Tris buffer solution) (pH 7.5), DTT, Triton X-100, MgCl2, ethylene glycol bis(β-aminoethyl ether)-N,N,N′,N′-tetraacetic acid (EGTA), (3-glycerol phosphate, and sodium orthovanadate(V). A 40 μM [γ-^33P]ATP solution was used by diluting a 10 mM ATP solution and a commercially available [γ-^33P]ATP solution (manufactured by PerkinElmer, Inc., Code No. NEG-302H) with the buffer solution. A PAK4 solution was used by diluting commercially available PAK4 (manufactured by Invitrogen Corp., Catalog No. PV4212) with the buffer solution. A substrate solution was used by diluting MBP with the buffer solution. As for the preparation of a reaction solution, the buffer solution, the 40 μM [γ-^33P]ATP solution, the PAK4 solution, and the substrate solution were mixed at 4° C. to obtain a reaction solution.
as §1, with “PAK4” for “CDK2”, “mixed,” for “mixed thereto,”
The calculation of the inhibitory activity of the test compound against PAK4 was performed as a test compound concentration inhibiting 50% of the amount of ^33P bound to MBP (IC50 value) by using EXSUS (version 8.0.0 or version 8.0.1, manufactured by CAC Exicare Corp.).
as §2

In assay [2] the test system is human large intestine cancer cell line (HCT-116). The assay can be described thus: Human large intestine cancer (HCT-116) cell growth inhibition test. In kind it is cell-based. The note with it: 72 h, HCT-116, culture for 3 days, sulforhodamine B absorbance. In outline: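 HCT-116 cells seeded at 1.0×10^3 cells/well in McCoy's 5a with 10% FBS, then exposed to compound (0.1% DMSO final) for 3 days. Growth measured by sulforhodamine B absorbance; IC50 derived from concentration-inhibition data.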

From patent US10131679B2, “Substituted dihydropyrrolopyrazole compound” (UBE INDUSTRIES, LTD., priority 2014, dated 2018) come the findings set out here.

A value given as a limit tells only on which side of the number the result lay.

As usually defined, the Ki is the equilibrium dissociation constant of an inhibitor or competing ligand from its target. In general, IC50 refers to the concentration that inhibits the measured activity by half. The low end stands for greater potency in that assay, the high end for weaker potency in that assay.

T1 sequence (P50613 whole entry): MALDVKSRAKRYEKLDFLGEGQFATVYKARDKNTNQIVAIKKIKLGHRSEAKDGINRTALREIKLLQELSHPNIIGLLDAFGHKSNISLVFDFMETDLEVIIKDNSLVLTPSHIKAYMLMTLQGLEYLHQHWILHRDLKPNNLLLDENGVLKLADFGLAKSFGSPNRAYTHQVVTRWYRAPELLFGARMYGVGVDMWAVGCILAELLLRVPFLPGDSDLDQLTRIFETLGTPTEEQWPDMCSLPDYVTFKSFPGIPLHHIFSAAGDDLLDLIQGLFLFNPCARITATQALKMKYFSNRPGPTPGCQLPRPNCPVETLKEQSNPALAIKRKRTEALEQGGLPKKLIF
T1 sequence (P51946 whole entry partner): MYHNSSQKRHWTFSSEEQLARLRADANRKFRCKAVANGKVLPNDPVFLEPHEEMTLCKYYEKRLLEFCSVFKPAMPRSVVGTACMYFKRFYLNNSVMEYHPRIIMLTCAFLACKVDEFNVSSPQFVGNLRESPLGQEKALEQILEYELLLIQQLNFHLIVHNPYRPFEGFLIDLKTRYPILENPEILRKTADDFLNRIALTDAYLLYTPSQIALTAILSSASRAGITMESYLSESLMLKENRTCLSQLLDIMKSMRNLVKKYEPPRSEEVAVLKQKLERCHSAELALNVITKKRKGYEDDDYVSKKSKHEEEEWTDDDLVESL
T1 sequence (P51948 whole entry partner): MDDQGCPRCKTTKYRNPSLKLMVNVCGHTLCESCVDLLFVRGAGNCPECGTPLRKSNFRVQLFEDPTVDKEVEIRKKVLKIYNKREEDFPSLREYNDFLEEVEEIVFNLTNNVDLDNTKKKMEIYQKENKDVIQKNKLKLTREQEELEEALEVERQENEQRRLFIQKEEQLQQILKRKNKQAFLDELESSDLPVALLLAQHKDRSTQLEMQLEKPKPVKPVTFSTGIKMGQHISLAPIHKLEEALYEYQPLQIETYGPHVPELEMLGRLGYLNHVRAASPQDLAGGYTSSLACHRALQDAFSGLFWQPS

Take `CCCCCCCCCCCC(=O)OC[C@@H](NC(=O)N1Cc2c(NC(=O)C3([Si](C)(C)C)CCC3)n[nH]c2C1(C)C)c1ccccc1` [V-1474, (S)-2-{6,6-Dimethyl-3-[1-(trimethylsilyl)cyclobutanecarboxamido]-1,4,5,6-tetrahydropyrrolo[3,4-c]pyrazole-5-carboxamido}-2-phenylethyl dodecanoate]: the inhibition in vivo at 1 % in assay [1] was at least 50%.
Take `CCC(=O)OC[C@@H](NC(=O)N1Cc2c(NC(=O)C3([Si](C)(C)C)CCC3)n[nH]c2C1(C)C)c1ccccc1` [V-1446, (S)-2-{6,6-Dimethyl-3-[1-(trimethylsilyl)cyclobutanecarboxamido]-1,4,5,6-tetrahydropyrrolo[3,4-c]pyrazole-5-carboxamido}-2-phenylethyl propionate]: the inhibition in vivo at 1 % in assay [1] is at least 50%.
As to `COCC(C)(C)C(NC(=O)N1Cc2c(NC(=O)C3([Si](C)(C)C)CCC3)n[nH]c2C1(C)C)c1ccccc1` (centres unmarked) [IV-676, N-(3-Methoxy-2,2-dimethyl-1-phenylpropyl)-6,6-dimethyl-3-[1-(trimethylsilyl)cyclobutanecarboxamido]-4,6-dihydropyrrolo[3,4-c]pyrazole-5(1H)-carboxamide], the inhibition in vivo at 0.01 % in assay [1] is at least 50%.
With `CCCCO[C@@H](C(=O)N1Cc2c(NC(=O)C3([Si](C)(C)C)CCC3)n[nH]c2C1(C)C)c1ccccc1` [IV-1200, (R)—N-[5-(2-Butoxy-2-phenylacetyl)-6,6-dimethyl-1,4,5,6-tetrahydropyrrolo[3,4-c]pyrazol-3-yl]-1-(trimethylsilyl)cyclobutanecarboxamide], in assay [1], the inhibition in vivo at 0.01 % was at least 50%.
Consider `CC(=O)OC[C@@H](NC(=O)N1Cc2c(NC(=O)C3([Si](C)(C)C)CCC3)n[nH]c2C1(C)C)c1ccccc1` [V-1442, (S)-2-{6,6-Dimethyl-3-[1-(trimethylsilyl)cyclobutanecarboxamido]-1,4,5,6-tetrahydropyrrolo[3,4-c]pyrazole-5-carboxamido}-2-phenylethyl acetate], for which, in assay [1], the inhibition in vivo at 1 % was at least 50%.
The same measure, in the same setting: next, `CC(C)C(=O)OC[C@@H](NC(=O)N1Cc2c(NC(=O)C3([Si](C)(C)C)CCC3)n[nH]c2C1(C)C)c1ccccc1` [V-1454, (S)-2-{6,6-Dimethyl-3-[1-(trimethylsilyl)cyclobutanecarboxamido]-1,4,5,6-tetrahydropyrrolo[3,4-c]pyrazole-5-carboxamido}-2-phenylethyl isobutanoate]: at least 50%.
Turning to `C[C@@H](Oc1ccccc1)C(=O)N1Cc2c(NC(=O)C3([Si](C)(C)C)CCC3)n[nH]c2C1(C)C` [IV-1258, (R)—N-[6,6-Dimethyl-5-(2-phenoxypropanoyl)-1,4,5,6-tetrahydropyrrolo[3,4-c]pyrazol-3-yl]-1-(trimethylsilyl)cyclobutanecarboxamide], the Ki on CDK7 was at most 50 nM; at CDK2, at least 1000 nM; at PAK4, at least 500 nM. In addition, in assay [2], the IC50 is at most 500 nM.
Regarding `CC(C)C(NC(=O)N1Cc2c(NC(=O)C3([Si](C)(C)C)CCC3)n[nH]c2C1(C)C)C(C)(C)CO` (centres unmarked) [IV-822, N-(1-Hydroxy-2,2,4-trimethylpentan-3-yl)-6,6-dimethyl-3-[1-(trimethylsilyl)cyclobutanecarboxamido]-4,6-dihydropyrrolo[3,4-c]pyrazole-5(1H)-carboxamide], the figures for the inhibition constant Ki at CDK7, at CDK2 and at PAK4 were at most 50 nM, at least 1000 nM and at least 500 nM, respectively. For the same molecule, the IC50 in assay [2] is at most 500 nM.
Regarding `CCCCCCCC(=O)OC[C@@H](NC(=O)N1Cc2c(NC(=O)C3([Si](C)(C)C)CCC3)n[nH]c2C1(C)C)c1ccccc1` [V-1470, (S)-2-{6,6-Dimethyl-3-[1-(trimethylsilyl)cyclobutanecarboxamido]-1,4,5,6-tetrahydropyrrolo[3,4-c]pyrazole-5-carboxamido}-2-phenylethyl octanoate], in assay [1], the inhibition in vivo at 1 % was at least 50%.
Same read-out and setting: the value for `CC(C)(C)C(=O)OC[C@@H](NC(=O)N1Cc2c(NC(=O)C3([Si](C)(C)C)CCC3)n[nH]c2C1(C)C)c1ccccc1` [V-1462, (S)-2-{6,6-Dimethyl-3-[1-(trimethylsilyl)cyclobutanecarboxamido]-1,4,5,6-tetrahydropyrrolo[3,4-c]pyrazole-5-carboxamido}-2-phenylethyl pivalate] was at least 50%.
As to `CC(C)(CO)C(NC(=O)N1Cc2c(NC(=O)C3([Si](C)(C)C)CC3)n[nH]c2C1(C)C)c1ccccc1` (centres unmarked) [III-353, N-(3-Hydroxy-2,2-dimethyl-1-phenylpropyl)-6,6-dimethyl-3-[1-(trimethylsilyl)cyclopropanecarboxamido]-4,6-dihydropyrrolo[3,4-c]pyrazole-5(1H)-carboxamide], the Ki at CDK7 is at most 50 nM; at CDK2, at least 1000 nM; at PAK4, at least 500 nM. The molecule further had an IC50 in assay [2] of at most 500 nM.
